The results in this text go back to patent US20210007356A1, “IMIDE DERIVATIVE AND FUNGICIDE CONTAINING SAID DERIVATIVE AS ACTIVE INGREDIENT” (HOKKO CHEMICAL INDUSTRY CO., LTD., priority 2018, published 2021).

Experiment [1] deals with rice blast fungus (Pyricularia grisea). Type of experiment: in vivo. Conditions: flowable diluted to 100 ppm, 10 mL per pot foliage spray on paddy rice; inoculated day after; 7 days after inoculation.
Experiment [2] concerns rice sheath blight fungus (Thanatephorus cucumeris). Kind of experiment: Test Example 6: control effect against rice sheath blight by box treatment (flowable formulation). Particulars: flowable 5,000 ppm, 50 mL irrigation of nursery box, paddy rice; inoculated after 3 weeks; 7 days after inoculation.
Experiment [3] shares this test system. Nature of the experiment: Test Example 8: control effect against rice sheath blight by box treatment (granule). Particulars: 5 g of granule on nursery box, paddy rice; inoculated after 3 weeks; 7 days after inoculation.
Source text: Control value (%)=[1−(lesion height in sprayed plot/lesion height in unsprayed plot)]×100 (d)
From the top of a nursery box, 5 g of a granule prepared according to Formulation Example-4 was applied to a 2.5-leaf-stage paddy rice (variety: Asahi) seedling raised using a nursery box ( 1/10 the area of standard nursery box in size: 12 cm×15 cm×height 4 cm) within a greenhouse. The formulation-treated paddy rice seedling was immediately transplanted at 5 seedlings/pot into a pot ( 1/10000 are in size) filled with paddy soil (flooded). After growing for 3 weeks within a greenhouse, a culture of rice sheath blight fungus (Thanatephorus cucumeris) grown in advance on a rice straw medium was inoculated into the root of the formulation-treated paddy rice, and disease development was promoted in an artificial weather chamber at 26° C. (relative humidity=100%). Seven days after the inoculation, the rice sheath blight lesion height (height from the root) was examined, and the control value (%) was calculated according to formula (d). […] This test was performed with three replications, each consisting of one plot and one pot, per one formulation plot, and its average evaluation value of control effect was determined.
Experiment [4] has the same test system. Kind of experiment: Test Example 10: control effect against rice sheath blight by water surface application (flowable formulation). Conditions: flowable 1,000 ppm, 1 mL dripped in paddy water, inoculated after 1 week, 7 days after inoculation.
Experiment [5] has as its system barley powdery mildew fungus (Erysiphe graminis). Nature of the experiment: Test Example 2: control effect against barley powdery mildew by foliage application. Type of experiment: in vivo. Particulars: wettable powder diluted to 100 ppm, 10 mL per pot foliage spray on barley; inoculated day after; 7 days after inoculation.
Experiment [6] relates to rice blast fungus (Pyricularia grisea). The format is in vivo. Conditions: flowable 5,000 ppm, 50 mL irrigation of nursery box, paddy rice; inoculated after 3 weeks; 7 days after inoculation.
For experiment [7] the test system is unchanged. The format is in vivo. Conditions: flowable 1,000 ppm, 1 mL dripped in paddy water, inoculated after 1 week, 7 days after inoculation.
For experiment [8] the test system is unchanged. The format is in vivo. Particulars: 5 g of granule on nursery box, paddy rice; inoculated after 3 weeks; 7 days after inoculation.

Read-outs that look alike come from different tables or passages of the source.

Regarding `Cc1nn(C)c(F)c1C(=O)N(C(=O)c1snc(Cl)c1Cl)c1ccccc1C(C)CC(C)C` (centres unmarked) [1-131, 3,4-Dichloro-N-{2-(1,3-dimethylbutyl)phenyl}-N-(5-fluoro-1,3-dimethylpyrazole-4-carbonyl)isothiazole-5-carboxamide], the “evaluation value of control effect (from control value, number of lesions)” value in experiment [1] was 4. For the same compound, the “evaluation value of control effect (from control value, lesion height)” value in experiment [2], in experiment [3] and in experiment [4] was 5 in each case. Moreover, the “evaluation value of control effect (from control value, lesion area percentage)” value in experiment [5] was 4.

Regarding `Cc1nn(C)c(F)c1C(=O)N(C(=O)c1scnc1C(F)(F)F)c1ccccc1C(C)CC(C)C` (centres unmarked) [1-336], the “evaluation value of control effect (from control value, number of lesions)” value in experiment [1] is 4. Further, the “evaluation value of control effect (from control value, lesion area percentage)” value in experiment [5] is 4.

Regarding `Cn1cc(C(=O)N(C(=O)c2scnc2C(F)(F)F)c2ccccc2-c2cc(F)c(F)c(F)c2)c(C(F)F)n1` [1-371], in experiment [1], the “evaluation value of control effect (from control value, number of lesions)” value was 4.

In the case of `Cc1nc(C(F)F)c(C(=O)N(C(=O)c2c(C(F)F)nn(C)c2Cl)c2ccccc2C(C)CC(C)C)s1` (centres unmarked) [7-272], the “evaluation value of control effect (from control value, number of lesions)” value in experiment [1] worked out at 4. The “evaluation value of control effect (from control value, lesion area percentage)” value in experiment [5] is on record as 4.

Take `CC(C)CC(C)c1sccc1N(C(=O)c1cccnc1C(F)F)C(=O)c1snc(Cl)c1Cl` (centres unmarked) [18-2]: the “evaluation value of control effect (from control value, number of lesions)” value in experiment [6], in experiment [7] and in experiment [8] was 5 throughout. In addition, the “evaluation value of control effect (from control value, lesion height)” value in experiment [2], in experiment [3] and in experiment [4] was 5 each time. Moreover, the “evaluation value of control effect (from control value, lesion area percentage)” value in experiment [5] amounted to 5.

Turning to `Cc1nnsc1C(=O)N(C(=O)c1cccnc1C(F)F)c1ccsc1C(C)CC(C)C` (centres unmarked) [18-8], the “evaluation value of control effect (from control value, number of lesions)” value in experiment [6], in experiment [7] and in experiment [8] was 5 throughout. In addition, the “evaluation value of control effect (from control value, lesion height)” value in experiment [2], in experiment [3] and in experiment [4] was 5 throughout. In addition, the “evaluation value of control effect (from control value, lesion area percentage)” value in experiment [5] amounted to 5.

Regarding `CC1OC(C)(C)c2cccc(N(C(=O)c3cn(C)nc3C(F)F)C(=O)c3snc(Cl)c3Cl)c21` (centres unmarked) [25-10], the “evaluation value of control effect (from control value, number of lesions)” value in experiment [6], in experiment [7] and in experiment [8] was 5 each time. The “evaluation value of control effect (from control value, lesion height)” value in experiment [2], in experiment [3] and in experiment [4] was 5 throughout. The “evaluation value of control effect (from control value, lesion area percentage)” value in experiment [5] is 4.

As to `CC1OC(C)(C)c2cccc(N(C(=O)c3cn(C)nc3C(F)F)C(=O)c3cccc4nnsc34)c21` (centres unmarked) [25-74], the “evaluation value of control effect (from control value, number of lesions)” value in experiment [6], in experiment [7] and in experiment [8] was 5 each time. For the same compound, the “evaluation value of control effect (from control value, lesion height)” value in experiment [2], in experiment [3] and in experiment [4] was 5 each time. Further, the “evaluation value of control effect (from control value, lesion area percentage)” value in experiment [5] is 4.

For the compound `CC1OC(C)(C)c2cccc(N(C(=O)c3cn(C)nc3C(F)F)C(=O)c3onc(Cl)c3Cl)c21` (centres unmarked) [25-114], the “evaluation value of control effect (from control value, number of lesions)” value in experiment [6], in experiment [7] and in experiment [8] was 5 each time. The “evaluation value of control effect (from control value, lesion height)” value in experiment [2], in experiment [3] and in experiment [4] was 5 in each case. Besides, the “evaluation value of control effect (from control value, lesion area percentage)” value in experiment [5] was found to be 4.

Take `Cc1nn(C)c(Cl)c1C(=O)N(C(=O)c1scnc1C(F)F)c1cccc2c1C(C)OC2(C)C` (centres unmarked) [25-119]: the “evaluation value of control effect (from control value, number of lesions)” value in experiment [1] amounted to 4.

On to `Cc1nn(C)c(Cl)c1C(=O)N(C(=O)c1scnc1C(F)(F)F)c1cccc2c1C(C)OC2(C)C` (centres unmarked) [25-120], for which, in experiment [1], the “evaluation value of control effect (from control value, number of lesions)” value turned out to be 4.

Regarding `Cc1nc(C(F)(F)F)c(C(=O)N(C(=O)c2c(C)nn(C)c2Cl)c2cccc3c2C(C)OC3(C)C)s1` (centres unmarked) [25-122], in experiment [1], the “evaluation value of control effect (from control value, number of lesions)” value was found to be 4.

As for `Cc1nc(C(F)F)c(C(=O)N(C(=O)c2snc(Cl)c2Cl)c2cccc3c2C(C)OC3(C)C)s1` (centres unmarked) [26-14], the “evaluation value of control effect (from control value, number of lesions)” value in experiment [6], in experiment [7] and in experiment [8] was 5 each time. The “evaluation value of control effect (from control value, lesion height)” value in experiment [2], in experiment [3] and in experiment [4] was 5 in each case. Further, in experiment [5], the “evaluation value of control effect (from control value, lesion area percentage)” value was 4.

As to `Cc1nc(C(F)F)c(C(=O)N(C(=O)c2snnc2C(F)F)c2cccc3c2C(C)CC3(C)C)s1` (centres unmarked) [26-57], the “evaluation value of control effect (from control value, number of lesions)” value in experiment [6], in experiment [7] and in experiment [8] was 5 throughout. Besides, the “evaluation value of control effect (from control value, lesion height)” value in experiment [2], in experiment [3] and in experiment [4] was 5 in each case. The “evaluation value of control effect (from control value, lesion area percentage)” value in experiment [5] is recorded as 4.

In the case of `Cc1nc(C(F)F)c(C(=O)N(C(=O)c2cccc3nnsc23)c2cccc3c2C(C)OC3(C)C)s1` (centres unmarked) [26-62], the “evaluation value of control effect (from control value, number of lesions)” value in experiment [6], in experiment [7] and in experiment [8] was 5 throughout. Further, the “evaluation value of control effect (from control value, lesion height)” value in experiment [2], in experiment [3] and in experiment [4] was 5 each time. In addition, the “evaluation value of control effect (from control value, lesion area percentage)” value in experiment [5] was 4.

For `Cc1nc(C(F)F)c(C(=O)N(C(=O)c2sc(C)nc2C(F)F)c2cccc3c2C(C)OC3(C)C)s1` (centres unmarked) [26-78], the “evaluation value of control effect (from control value, number of lesions)” value in experiment [6], in experiment [7] and in experiment [8] was 5 each time. Also, the “evaluation value of control effect (from control value, lesion height)” value in experiment [2], in experiment [3] and in experiment [4] was 5 throughout. Moreover, in experiment [5], the “evaluation value of control effect (from control value, lesion area percentage)” value is given as 4.

For `Cc1nc(C(F)F)c(C(=O)N(C(=O)c2scnc2C(F)(F)F)c2cccc3c2C(C)OC3(C)C)s1` (centres unmarked) [26-82], the “evaluation value of control effect (from control value, number of lesions)” value in experiment [1] is on record as 4. Besides, the “evaluation value of control effect (from control value, lesion height)” value in experiment [2], in experiment [3] and in experiment [4] was 5 in each case.

Turning to `Cc1nc(C(F)F)c(C(=O)N(C(=O)c2cc(Cl)no2)c2cccc3c2C(C)OC3(C)C)s1` (centres unmarked) [26-91], the “evaluation value of control effect (from control value, number of lesions)” value in experiment [6], in experiment [7] and in experiment [8] was 5 throughout. Also, the “evaluation value of control effect (from control value, lesion height)” value in experiment [2], in experiment [3] and in experiment [4] was 5 each time. Moreover, the “evaluation value of control effect (from control value, lesion area percentage)” value in experiment [5] came to 4.

Take `CC1OC(C)(C)c2cccc(N(C(=O)c3cccnc3C(F)F)C(=O)c3snc(Cl)c3Cl)c21` (centres unmarked) [27-4]: the “evaluation value of control effect (from control value, number of lesions)” value in experiment [6], in experiment [7] and in experiment [8] was 5 each time. The “evaluation value of control effect (from control value, lesion height)” value in experiment [2], in experiment [3] and in experiment [4] was 5 throughout. In addition, in experiment [5], the “evaluation value of control effect (from control value, lesion area percentage)” value is 4.

In the case of `Cc1nnsc1C(=O)N(C(=O)c1cccnc1C(F)F)c1cccc2c1C(C)OC2(C)C` (centres unmarked) [27-16], the “evaluation value of control effect (from control value, number of lesions)” value in experiment [6], in experiment [7] and in experiment [8] was 5 throughout. The “evaluation value of control effect (from control value, lesion height)” value in experiment [2], in experiment [3] and in experiment [4] was 5 each time. Moreover, the “evaluation value of control effect (from control value, lesion area percentage)” value in experiment [5] came to 4.
